Reference: US20200172529A1, “Chemical Compound, Pharmaceutical Composition Thereof, and Use and Application Thereof” (Beijing Hanmi Pharm. Co., Ltd., priority 2017, published 2020)
pIC50: −log10 of the molar value.

What was measured:
Type in all cases: biochemical
TYK2 kinase = molecular target: T1, TYK2 kinase (Homo sapiens, UniProt P29597); assay: Inhibition assay of TYK2 kinase activity (ADP-Glo Kinase Assay)
T1 construct: purchased Life Technologies PR8440C
How it was run: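 Enzyme at 0.8 ng/mL (2-fold final) in 40 mM Tris-HCl pH 7.5, 20 mM MgCl2, 0.1 mg/mL BSA, 1 mM DTT, preincubated 10 min with compound (6 points, 10-fold dilutions from 10 μM). ATP plus polyE4Y1 then added for 60 min at room temperature. ADP-Glo luminescence read and IC50 derived.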

JAK1 kinase = JAK1 kinase (Homo sapiens, UniProt P23458); assay: Inhibition assay of JAK1 kinase activity (ADP-Glo Kinase Assay)
Sequence of JAK1 kinase (P23458 whole entry): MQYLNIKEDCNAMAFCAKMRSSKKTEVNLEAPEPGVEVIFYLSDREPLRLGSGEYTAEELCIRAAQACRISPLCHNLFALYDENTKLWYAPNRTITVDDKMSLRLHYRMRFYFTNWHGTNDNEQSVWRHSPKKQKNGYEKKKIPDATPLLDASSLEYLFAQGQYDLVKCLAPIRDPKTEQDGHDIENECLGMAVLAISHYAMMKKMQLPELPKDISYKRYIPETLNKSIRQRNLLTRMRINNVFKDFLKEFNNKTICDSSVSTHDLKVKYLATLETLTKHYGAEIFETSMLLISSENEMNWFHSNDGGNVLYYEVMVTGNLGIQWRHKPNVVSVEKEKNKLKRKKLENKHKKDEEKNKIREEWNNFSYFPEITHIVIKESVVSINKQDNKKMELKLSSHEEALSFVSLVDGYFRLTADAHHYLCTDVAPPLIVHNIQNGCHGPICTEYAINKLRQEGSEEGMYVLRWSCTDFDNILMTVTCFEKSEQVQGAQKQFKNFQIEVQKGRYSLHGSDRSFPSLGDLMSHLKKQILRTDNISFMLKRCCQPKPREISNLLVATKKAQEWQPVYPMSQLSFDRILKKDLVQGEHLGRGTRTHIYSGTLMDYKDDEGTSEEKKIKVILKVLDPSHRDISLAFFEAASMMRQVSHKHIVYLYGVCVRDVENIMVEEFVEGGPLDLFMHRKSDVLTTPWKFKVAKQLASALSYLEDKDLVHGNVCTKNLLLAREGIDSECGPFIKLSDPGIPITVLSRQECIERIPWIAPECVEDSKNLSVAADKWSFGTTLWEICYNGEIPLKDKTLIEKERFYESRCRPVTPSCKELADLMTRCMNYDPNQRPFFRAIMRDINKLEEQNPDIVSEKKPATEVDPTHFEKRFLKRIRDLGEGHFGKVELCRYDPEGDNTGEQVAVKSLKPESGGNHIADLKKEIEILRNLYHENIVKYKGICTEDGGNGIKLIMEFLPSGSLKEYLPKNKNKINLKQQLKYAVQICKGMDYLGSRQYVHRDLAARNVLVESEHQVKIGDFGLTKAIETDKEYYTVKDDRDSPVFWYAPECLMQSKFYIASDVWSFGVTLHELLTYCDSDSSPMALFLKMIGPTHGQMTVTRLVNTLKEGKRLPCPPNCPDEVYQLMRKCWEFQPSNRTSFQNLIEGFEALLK
From the text: Inhibition assay of JAK1 kinase activity: the method in ADP-Glo™ Kinase Assay (Promega, V9102) was used to determine the inhibitory activity of the test compounds against JAK1 kinase.

SYK kinase = SYK kinase (Homo sapiens, UniProt P43405); assay: Inhibition assay of SYK kinase activity (ADP-Glo Kinase Assay)
From the text: Inhibition assay of SYK kinase activity: the method in ADP-Glo™ Kinase Assay (Promega, V9102) was used to determine the inhibitory activity of the test compounds against SYK kinase.

JAK3 kinase = molecular target: T2, JAK3 kinase (Homo sapiens, UniProt P52333); assay: Inhibition assay of JAK3 kinase activity (ADP-Glo Kinase Assay)
T2 sequence (P52333 1-1124): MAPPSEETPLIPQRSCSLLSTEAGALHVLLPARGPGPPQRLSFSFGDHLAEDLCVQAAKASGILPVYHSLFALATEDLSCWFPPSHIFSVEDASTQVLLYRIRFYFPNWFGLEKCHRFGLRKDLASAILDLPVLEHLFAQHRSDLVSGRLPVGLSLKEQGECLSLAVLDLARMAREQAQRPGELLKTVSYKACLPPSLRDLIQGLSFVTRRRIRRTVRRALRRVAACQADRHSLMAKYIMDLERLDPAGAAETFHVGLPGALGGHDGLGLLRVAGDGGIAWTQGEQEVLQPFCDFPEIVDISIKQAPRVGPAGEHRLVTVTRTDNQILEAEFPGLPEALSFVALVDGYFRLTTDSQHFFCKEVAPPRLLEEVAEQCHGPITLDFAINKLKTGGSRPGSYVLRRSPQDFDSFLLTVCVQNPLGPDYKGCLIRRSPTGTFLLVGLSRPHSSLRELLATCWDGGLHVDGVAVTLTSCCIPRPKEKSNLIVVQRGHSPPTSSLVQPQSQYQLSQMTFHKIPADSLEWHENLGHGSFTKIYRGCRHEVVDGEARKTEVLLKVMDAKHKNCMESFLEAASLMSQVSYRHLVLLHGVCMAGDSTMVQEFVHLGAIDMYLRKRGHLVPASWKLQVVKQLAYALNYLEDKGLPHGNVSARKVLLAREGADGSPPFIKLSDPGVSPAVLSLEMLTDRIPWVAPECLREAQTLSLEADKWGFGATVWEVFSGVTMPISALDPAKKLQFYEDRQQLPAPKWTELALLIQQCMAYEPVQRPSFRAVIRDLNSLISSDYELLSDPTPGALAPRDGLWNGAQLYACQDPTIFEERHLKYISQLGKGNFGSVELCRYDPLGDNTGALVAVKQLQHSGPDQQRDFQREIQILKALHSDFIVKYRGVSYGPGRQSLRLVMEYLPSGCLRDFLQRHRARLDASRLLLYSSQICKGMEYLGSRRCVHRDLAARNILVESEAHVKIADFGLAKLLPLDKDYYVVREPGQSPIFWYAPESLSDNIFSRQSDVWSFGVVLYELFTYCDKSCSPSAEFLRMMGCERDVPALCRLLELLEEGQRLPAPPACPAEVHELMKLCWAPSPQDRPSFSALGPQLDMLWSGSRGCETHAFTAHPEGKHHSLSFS
From the text: Inhibition assay of JAK3 kinase activity: the method in ADP-Glo™ Kinase Assay (Promega, V9102) was used to determine the inhibitory activity of the test compounds against JAK3 kinase.

JAK2 kinase = JAK2 kinase (Homo sapiens, UniProt O60674); assay: Inhibition assay of JAK2 kinase activity (ADP-Glo Kinase Assay)
Sequence of JAK2 kinase (O60674 whole entry): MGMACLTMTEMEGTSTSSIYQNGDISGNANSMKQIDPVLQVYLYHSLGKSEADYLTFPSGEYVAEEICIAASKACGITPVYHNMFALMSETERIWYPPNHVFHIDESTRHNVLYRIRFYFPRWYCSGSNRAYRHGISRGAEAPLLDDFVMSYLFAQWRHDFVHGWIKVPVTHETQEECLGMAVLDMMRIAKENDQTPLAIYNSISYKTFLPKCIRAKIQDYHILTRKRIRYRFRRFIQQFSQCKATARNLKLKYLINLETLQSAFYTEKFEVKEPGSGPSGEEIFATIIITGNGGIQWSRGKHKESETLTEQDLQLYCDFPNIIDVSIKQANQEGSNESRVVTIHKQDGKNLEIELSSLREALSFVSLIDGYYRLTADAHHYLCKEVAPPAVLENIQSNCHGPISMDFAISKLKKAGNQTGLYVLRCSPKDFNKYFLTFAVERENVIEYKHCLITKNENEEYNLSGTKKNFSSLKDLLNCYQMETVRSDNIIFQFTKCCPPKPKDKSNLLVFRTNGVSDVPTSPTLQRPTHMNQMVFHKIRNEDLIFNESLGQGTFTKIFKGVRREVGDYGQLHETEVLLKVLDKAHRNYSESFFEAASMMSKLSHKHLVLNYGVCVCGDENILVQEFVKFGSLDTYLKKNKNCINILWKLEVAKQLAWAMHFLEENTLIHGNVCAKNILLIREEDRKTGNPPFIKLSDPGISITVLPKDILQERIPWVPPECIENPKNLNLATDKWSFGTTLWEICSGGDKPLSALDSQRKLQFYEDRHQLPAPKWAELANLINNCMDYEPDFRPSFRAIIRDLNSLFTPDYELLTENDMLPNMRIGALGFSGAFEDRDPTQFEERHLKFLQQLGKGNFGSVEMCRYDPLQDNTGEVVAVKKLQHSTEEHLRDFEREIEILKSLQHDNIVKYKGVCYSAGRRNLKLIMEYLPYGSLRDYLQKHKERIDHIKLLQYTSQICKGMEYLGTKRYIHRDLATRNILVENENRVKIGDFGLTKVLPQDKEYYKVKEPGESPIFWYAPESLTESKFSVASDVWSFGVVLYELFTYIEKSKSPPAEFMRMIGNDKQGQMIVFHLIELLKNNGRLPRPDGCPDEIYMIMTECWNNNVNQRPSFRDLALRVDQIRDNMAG
From the text: Inhibition assay of JAK2 kinase activity: the method in ADP-Glo™ Kinase Assay (Promega, V9102) was used to determine the inhibitory activity of the test compounds against JAK2 kinase.

T1 sequence (P29597 whole entry): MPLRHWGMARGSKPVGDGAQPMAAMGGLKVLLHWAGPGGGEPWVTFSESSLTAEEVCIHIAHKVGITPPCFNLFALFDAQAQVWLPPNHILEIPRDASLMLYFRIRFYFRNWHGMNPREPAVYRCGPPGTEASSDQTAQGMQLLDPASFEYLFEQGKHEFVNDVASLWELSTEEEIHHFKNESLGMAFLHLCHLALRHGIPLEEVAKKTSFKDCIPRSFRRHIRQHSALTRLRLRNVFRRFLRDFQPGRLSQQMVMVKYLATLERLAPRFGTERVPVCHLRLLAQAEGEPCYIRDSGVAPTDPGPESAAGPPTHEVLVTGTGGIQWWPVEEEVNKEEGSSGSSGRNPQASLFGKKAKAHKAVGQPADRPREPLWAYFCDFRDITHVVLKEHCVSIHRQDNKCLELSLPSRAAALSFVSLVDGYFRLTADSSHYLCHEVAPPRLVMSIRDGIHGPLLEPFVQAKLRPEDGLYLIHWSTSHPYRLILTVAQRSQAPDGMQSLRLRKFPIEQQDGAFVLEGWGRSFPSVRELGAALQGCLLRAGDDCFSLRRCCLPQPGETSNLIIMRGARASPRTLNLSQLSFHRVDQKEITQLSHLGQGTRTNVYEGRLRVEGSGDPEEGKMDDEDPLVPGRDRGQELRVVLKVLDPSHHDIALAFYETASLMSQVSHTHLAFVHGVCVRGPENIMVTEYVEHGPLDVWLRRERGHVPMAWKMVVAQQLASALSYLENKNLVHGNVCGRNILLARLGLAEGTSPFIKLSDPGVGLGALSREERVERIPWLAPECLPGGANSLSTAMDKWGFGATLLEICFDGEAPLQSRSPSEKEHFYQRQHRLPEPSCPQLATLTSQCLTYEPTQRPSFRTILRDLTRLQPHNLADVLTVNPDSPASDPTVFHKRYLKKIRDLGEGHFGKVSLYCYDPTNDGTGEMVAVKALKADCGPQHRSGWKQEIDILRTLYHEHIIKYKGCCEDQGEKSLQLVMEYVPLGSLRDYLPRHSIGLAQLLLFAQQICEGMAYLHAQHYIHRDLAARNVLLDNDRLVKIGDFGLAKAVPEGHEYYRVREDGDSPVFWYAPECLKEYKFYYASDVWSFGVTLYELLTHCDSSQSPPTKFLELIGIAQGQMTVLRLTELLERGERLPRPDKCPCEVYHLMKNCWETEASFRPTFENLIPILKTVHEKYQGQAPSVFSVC

Compound | pIC50 (TYK2 kinase) | pIC50 (JAK1 kinase) | pIC50 (SYK kinase) | pIC50 (JAK3 kinase) | pIC50 (JAK2 kinase)
COCCO[C@H]1CNc2cc(Nc3ncc(C(N)=O)c(NC4CC4)n3)ccc2OC1 [Example 78, 4-(cyclopropylamino)-2-(((S)-2,3,4,5-tetrahydro-3-methoxyethoxybenzo[b][1,4]oxazepin-7-yl)amino)pyrimidin-5-carboxamide] | > 8.00 | > 8.00 | 7.00 to 8.00 | 7.00 to 8.00 | 7.00 to 8.00
CCO[C@H]1CNc2cc(Nc3ncc(C(N)=O)c(NC4CC4)n3)ccc2OC1 [Example 79, 4-(cyclopropylamino)-2-(((S)-2,3,4,5-tetrahydro-3-ethoxybenzo[b][1,4]oxazepin-7-yl)amino)pyrimidin-5-carboxamide] | > 8.00 | > 8.00 | 7.00 to 8.00 | 7.00 to 8.00 | 7.00 to 8.00
CO[C@@H]1CNc2cc(Nc3ncc(C(N)=O)c(NC4CC4)n3)ccc2OC1 [Example 80, 4-(cyclopropylamino)-2-(((R)-2,3,4,5-tetrahydro-3-methoxybenzo[b][1,4]oxazepin-7-yl)amino)pyrimidin-5-carboxamide] | > 8.00 | 7.00 to 8.00 | 7.00 to 8.00 | > 8.00 | > 8.00
COCCO[C@@H]1CNc2cc(Nc3ncc(C(N)=O)c(NC4CC4)n3)ccc2OC1 [Example 86, 4-(cyclopropylamino)-2-(((R)-2,3,4,5-tetrahydro-3-methoxyethoxybenzo[b][1,4]oxazepin-7-yl)amino)pyrimidin-5-carboxamide] | > 8.00 | 7.00 to 8.00 | 7.00 to 8.00 | 7.00 to 8.00 | > 8.00
[2H]C([2H])([2H])O[C@H]1CNc2cc(Nc3ncc(C(N)=O)c(NC4CC4)n3)ccc2OC1 [Example 87, 4-(cyclopropylamino)-2-(((S)-2,3,4,5-tetrahydro-3-(trideuteromethoxy)benzo[b][1,4]oxazepin-7-yl)amino)pyrimidin-5-carboxamide] | > 8.00 | > 8.00 | 7.00 to 8.00 | 7.00 to 8.00 | > 8.00
COCCOCCO[C@H]1CNc2cc(Nc3ncc(C(N)=O)c(NC4CC4)n3)ccc2OC1 [Example 89, 4-(cyclopropylamino)-2-(((S)-2,3,4,5-tetrahydro-3-(2-(2-methoxyethoxy)ethoxy)benzo[b][1,4]oxazepin-7-yl)amino)pyrimidin-5-carboxamide] | > 8.00 | > 8.00 | 7.00 to 8.00 | 7.00 to 8.00 | 7.00 to 8.00
CCOC(=O)CO[C@H]1CNc2cc(Nc3ncc(C(N)=O)c(NC4CC4)n3)ccc2OC1 [Example 91, 4-(cyclopropylamino)-2-(((S)-2,3,4,5-tetrahydro-3-ethoxycarbonylmethoxybenzo[b][1,4]oxazepin-7-yl)amino)pyrimidin-5-carboxamide] | > 8.00 | > 8.00 | 7.00 to 8.00 | 7.00 to 8.00 | 7.00 to 8.00
NC(=O)c1cnc(Nc2ccc3c(c2)NC[C@H](OCCO)CO3)nc1NC1CC1 [Example 92, 4-(cyclopropylamino)-2-(((S)-2,3,4,5-tetrahydro-3-(2-hydroxyethoxy)benzo[b][1,4]oxazepin-7-yl)amino)pyrimidin-5-carboxamide] | > 8.00 | > 8.00 | 7.00 to 8.00 | > 8.00 | > 8.00
NC(=O)c1cnc(Nc2ccc3c(c2)NC[C@H](OCC(=O)O)CO3)nc1NC1CC1 [Example 94, 4-(cyclopropylamino)-2-(((S)-2,3,4,5-tetrahydro-3-(carboxymethoxy)benzo[b][1,4]oxazepin-7-yl)amino)pyrimidin-5-carboxamide] | > 8.00 | > 8.00 | 7.00 to 8.00 | 7.00 to 8.00 | > 8.00
CCOCCO[C@H]1CNc2cc(Nc3ncc(C(N)=O)c(NC4CC4)n3)ccc2OC1 [Example 95, 4-(cyclopropylamino)-2-(((S)-2,3,4,5-tetrahydro-3-(2-ethoxyethoxy)benzo[b][1,4]oxazepin-7-yl)amino)pyrimidin-5-carboxamide] | > 8.00 | > 8.00 | 7.00 to 8.00 | > 8.00 | 7.00 to 8.00
CC(C)OCCO[C@H]1CNc2cc(Nc3ncc(C(N)=O)c(NC4CC4)n3)ccc2OC1 [Example 96, 4-(cyclopropylamino)-2-(((S)-2,3,4,5-tetrahydro-3-(2-isopropoxyethoxy)benzo[b][1,4]oxazepin-7-yl)amino)pyrimidin-5-carboxamide] | > 8.00 | > 8.00 | 7.00 to 8.00 | 7.00 to 8.00 | 7.00 to 8.00
NC(=O)c1cnc(Nc2ccc3c(c2)NC[C@H](OCC2CCCO2)CO3)nc1NC1CC1 (stereo partly drawn) [Example 97, 4-(cyclopropylamino)-2-(((S)-2,3,4,5-tetrahydro-3-((tetrahydrofuran-2-yl)methoxy)benzo[b][1,4]oxazepin-7-yl)amino)pyrimidin-5-carboxamide] | > 8.00 | > 8.00 | 7.00 to 8.00 | 7.00 to 8.00 | 7.00 to 8.00
COCCCO[C@H]1CNc2cc(Nc3ncc(C(N)=O)c(NC4CC4)n3)ccc2OC1 [Example 98, 4-(cyclopropylamino)-2-(((S)-2,3,4,5-tetrahydro-3-(3-methoxypropoxy)benzo[b][1,4]oxazepin-7-yl)amino)pyrimidin-5-carboxamide] | > 8.00 | > 8.00 | 7.00 to 8.00 | 7.00 to 8.00 | 7.00 to 8.00
CC1(CO[C@H]2CNc3cc(Nc4ncc(C(N)=O)c(NC5CC5)n4)ccc3OC2)COC1 [Example 101, 4-(cyclopropylamino)-2-(((S)-2,3,4,5-tetrahydro-3-((3-methyloxetan-3-yl)methoxy)benzo[b][1,4]oxazepin-7-yl)amino)pyrimidin-5-carboxamide] | > 8.00 | > 8.00 | 7.00 to 8.00 | 7.00 to 8.00 | 7.00 to 8.00
